According to patent US5066644A, “Derivatives of thiazolidine-4-carboxylic acid, its preparation and pharmaceutical compositions containing it” (Poli Industria Chimica S.p.A., priority 1989, dated 1991):
Non-standard residues stand in square brackets, D forms with d. Residues, ends and D or L forms follow the SMILES beside them. ξ: configuration not given here. *: point of attachment. pGlu = O=C1CC[C@@H](C(=O)O)N1; Morpholide = C1CN(*)CCO1; ξThz = O=C(O)C1CSCN1

How the values were obtained:
Assay type in all cases: in vivo
[1] = tested on: peritoneal macrophages; test: Superoxide anion production by peritoneal macrophages from prednisolone-immunodepressed mice; settings: 200 mg/kg/die i.p. + prednisolone 0,5 mg/kg/die/s.c.; macrophages stimulated with phorbol myristate acetate
Description: Since the production of superoxide anion (O2 ) plays an important role in the microbicidal activity of macrophages (N. P. Cumming, M. J. Pabst, J.Exp.Med., 152, 1649, 1980), the showing of a stimulation of the superoxide anion in the macrophages by drugs provides a very important test for the evaluation of immunostimulating activity. The production of O2 in peritoneal macrophages isolated from prednisolone immunodepressed animals treated with the compounds of the invention was therefore evaluated. The mice were treated subcutaneously for two days with 0.5 mg/kg/day of prednisolone and with the compounds under examination at the dose of 100 mg/kg twice a day, whereas the morning of the animals sacrifice the animals received the compounds only. The macrophages were then isolated by means of a peritoneal washing and cultured in RPMI-1640 added with 10% foetal calf serum, at the concentration of 1×10^6 cells/ml at the temperature of ±37° C. Amounts of 1 ml of cell suspension were incubated for 15' at 37° C. with horse heart cytochrome C and stimulated with phorbol myristate acetate (H. Nielsen, Eur.J.Clin.Pharmacol., 30, 90, 1986). A specrophotometric determination at λ=550 nm of the reduced ferricytochroma using an extinction coefficient E(550)=29.5 mM was then carried out. As it turns out from Table 1, the prednisolone treatment induces an immunosuppression resulting in a lesser production of superoxide anion; the contemporaneous treatment with the compounds of the invention stimulates the 02 production by macrophages up to values close to those of control animals. The compounds have an activity which is from similar to higher than that of PGT at equiponderal doses.

[2] = tested on: E. coli; test: Endoperitoneal E. coli infection in mice; settings: 200 mg/kg/die os; for N° dead mice/N° treated mice: death-rate recorded 7-8 days after infection
Protocol: The compounds were tested in endoperitoneal infection in mice. Male COBS CD-1 mice weighing 22-25 g were inoculated i.p. with 0.5 ml/mouse of a pathogenic E.coli suspension (in saline solution+0.5% porcine gastric mucine), having a transmittance of about 50%. The mice were treated orally with the compounds twice a day from two days before until the day of the infection, 7 hours before the inoculation.
The death-rate was recorded for about 7-8 days after the infection.

[3] = tested on: delayed hypersensitivity by DNCB; test: Delayed hypersensitivity induced by DNCB in prednisolone-immunodepressed mice; settings: 200 mg/kg/die os; for Weight left ear/Weight right ear: 24 hours after challenge; for Increase %: vs. control group
Protocol: Male COBS CD-2 mice weighing about 30 g were sensitized with 25 μl of dinitrochlorobenzene (DNCB) at the concentration of 20 mg/ml in acetone applied on a zone of the abdomen depilated at least 2 hours before.
After 12 hours the animals were challenged with 5 μl of DNCB at the concentration of 10 mg/ml in acetone applied on the external surface of the left auricolar pinna.
In order to carry out this operation the mice were slightly anesthetized with ether. The mice were treated with the compounds under examination from two days before until the day of sensitization and with the compounds and with prednisolone (0.5 mg/kg/die s.c.; 0.5 ml/10 g) from the tenth day after sensitization until the day when challenge occurred.
The animals were killed 24 hours after the challenge; both ears were cut and weighed. The values are expressed as the ratio between the left ear (sensitized) and the right one (unsensitized). […] The increase was higher than that obtained after oral administration of PGT.

[4] = tested on: rosette forming cells; test: Rosette forming cells (primary response) in prednisolone-immunodepressed mice; settings: 200 mg/kg/die os; for Rosette forming cells change %: vs. control group
Protocol: The compounds of the invention are also active in the test of the rosette forming cells (primary response; II° type) in prednisolone immunodepressed mice (S. D. Wilson, Immunology, 21, 233, 1971).
Male COBS CD-1 mice weighing about 25 g were treated for 7 days twice a day, with the compounds of the invention and at the second and third day with prednisolone at the dose of 5 mg/kg/s.c. (0.05 ml/10 g).
After 4 days from the start of the treatment the
10 animals were immunized with 5×10^8 sheep red blood cells in 0.2 ml of PBS by intraperitoneal route. The red blood cells were prepared by centrifugating the citrated sheep blood at 1500 rpm for 15 min.; the precipitated red blood cells were washed twice at 1200 rpm for 10 min. in PBS removing the first layer, then suspended again in PBS and counted adjusting at 2.5×10^9 cells/ml.
After 6 days from the immunization the rosette test was carried out by killing the mice and removing the spleen, which was placed in 1 ml of Hank solution in ice-bath and then triturated, homogenated and gauze-filtered. The homogenate was washed twice in Hank, centrifugating at 1200 rpm for 10 min. and then suspended again. The suspension was adjusted to 6×10^7 cells/ml by counting at the Coulter Counter after lysis of the red blood cells. 100 μl of spleen cells suspension (6×10^7 /ml)+100 μl of red blood cells suspension (3×10^8 /ml) were mixed in 0.8 ml of Hank stirring slightly for 1 minute. The samples were incubated for 24 h at+4° C. avoiding any stirring. The samples were then stirred and the number of rosette forming cells/ml was evaluated by means of the Burker apparatus.

[5] = tested on: reticulo-endothelial system; test: Activity of the reticulo-endothelial system (colloidal charcoal clearance) in cyclophosphamide-immunodepressed mouse; settings: 100 mg/kg/die i.p.; for Absorbance Δ (0'-20'): means ± SE of 10 mice, absorbance at 640 nm
Protocol: The compounds of the invention are also active in the test of the activity of the reticulo-endothelial system in the mouse immunodepressed by cyclophosphamide (Biozzi G. et al., Brit. J. Path., 34, 441, 1953). COBS CD-1 mice were injected i.v. with colloidal charcoal (0.32 ml of china ink/ml of saline), 10 μl of retroorbital blood were then taken out immediately before and after 1, 10 and 20 min. from the intravenous injection, the blood sample was placed in 3 ml of HCl 0.1 N and the absorbance was evaluated at 640 nm and the change of absorbance was evaluated between the time 0 and 20 min. The animals were treated with cyclophosphamide (100 mg/kg i.p.) from the third to the fifth day of treatment and with the compounds under test for 10 consecutive days; the day after the last treatment the test was carried out.

Structure (SMILES)	nmol cytochrome C reduced/1 × 10^6 macrophages (mean ± S.E.) [1]	Protection (%) [2] [%]	N° dead mice/N° treated mice [2]	Weight left ear/Weight right ear [3]	Increase % [3] [%]	Rosette forming cells/spleen cells % [4] [%]	Rosette forming cells change % [4]	Variation versus the cyclophosphamide treated group % [5]	Absorbance Δ (0'-20') [5]
CCNC(=O)C1CSCN1C(=O)[C@@H]1CCC(=O)N1 (stereo partly drawn) [Ic, N-(3-pyroglutamyl-thiazolidine-4-carbonyl)-ethylamine] ([pGlu]-[ξThz]-NHEt)	7.83 ± 0.72 nmol cytochrome C reduced/1 ×	40	6/10	1.706 ± 0.028	29.05	1.145 ± 0.032	+34.71%	+15.94%	0.371 ± 0.016
O=C1CC[C@@H](C(=O)N2CSCC2C(=O)O)N1 (stereo partly drawn) [PGT, 3-pyroglutamyl-thiazolidine-4-carboxylic acid, reference compound] ([pGlu]-[ξThz]-OH)	8.85 ± 0.75 nmol cytochrome C reduced/1 ×	20	8/10	1.579 ± 0.027	19.44	1.125 ± 0.040	+32.35%	+14.06%	0.365 ± 0.018
O=C1CC[C@@H](C(=O)N2CSCC2C(=O)N2CCOCC2)N1 (stereo partly drawn) [Ib, N-(3-Pyroglutamyl-thiazolidine-4-carbonyl)morpholine] ([pGlu]-[ξThz]-Morpholide)	9.62 ± 0.63 nmol cytochrome C reduced/1 ×	40	6/10	1.702 ± 0.026	28.74	1.138 ± 0.038	+33.88%	+19.37%	0.382 ± 0.021
NC(=O)C1CSCN1C(=O)[C@@H]1CCC(=O)N1 (stereo partly drawn) [Ia, 3-Pyroglutamyl-thiazolidine-4-carboxamide] ([pGlu]-[ξThz]-NH2)	9.25 ± 0.48 nmol cytochrome C reduced/1 ×	40	6/10	1.688 ± 0.029	27.68	1.140 ± 0.032	+34.12%	+15.62%	0.370 ± 0.013
